# Assay results from patent US11191746B2, “Composition for inhibiting a growth of cancer stem cells comprising ciclesonide” (JEJU NATIONAL UNIVERSITY INDUSTRY-ACADEMIC COOPERATION …, priority 2016, dated 2021).
# Tests used:
# STAT3 = experiment: Western blotting of mammosphere nuclear proteins; type: cell-based, human; conditions: MCF-7 cells-derived mammospheres
# Experimental: Proteins isolated from ciclesonide-treated MCF-7 or MDA-MB-231 mammospheres were separated on 10% SDS-PAGE and transferred to a polyvinylidene difluoride membrane (Millipore, Bedford, Mass., USA). The membrane was blocked in PBS-Tween 20 (0.1%, v/v) containing 5% skimmed milk at room temperature for 30 minutes. The blot was incubated at 4° C. overnight with a blocking solution containing primary antibodies. The primary antibodies used were as follows: Stat3, p65, Lamin B, and phospho-Stat3 (Cell Signaling, Beverly, Mass., USA). β-actin (Santa Cruz Biotechnology) was used as a loading control. After washing with PBS-Tween 20 (0.1%, v/v), the blot was incubated with horseradish peroxidase-conjugated secondary antibodies, and photosensitized with a chemiluminescence detection kit (Santa Cruz Biotechnology).
# MCF-7 cells [1] = experiment: CD44 and CD24 expression flow cytometric analysis; type: cell-based, human; conditions: 24 hours, FACS
# Experimental: The expression of CD44 and CD24 in MCF-7 cells was measured by FACS analysis. After isolating and harvesting cells using 1× trypsin/EDTA, one million cells were suspended, labeled with an FITC-conjugated anti-human CD44 antibody and a PE-conjugated anti-human CD24 antibody (BD Pharmingen, San Diego, Calif., USA), and incubated at 4° C. for 30 minutes. The cells were then washed three times with 1× PBS and analyzed by flow cytometry (Accuri C6, BD, San Diego, Calif., USA).
# MDA-MB-231 cells [2] = experiment: Annexin V/PI staining, FACS; type: cell-based, human; conditions: MDA-MB-231, 20 μM, 24 hours
# Experimental: (§1) Cancer cells were cultured in a 6-well plate for 24 hours along with 20 μM of ciclesonide for the case of breast cancer and 10 μM or 20 μM of ciclesonide or DMSO for the case of lung cancer. In accordance with the manufacturer's protocol, apoptotic cells were double-stained with PI and FITC-Annexin V. The sample was analyzed by flow cytometry (Accuri C6, BD, San Diego, Calif., USA).
# A549 cells = experiment: Annexin V/PI staining, FACS; type: cell-based, human; conditions: A549, 10 μM and 20 μM, 24 hours
# Experimental: as §1
# mammospheres = experiment: Mammosphere proliferation (cell counting); type: cell-based, human; conditions: mammospheres treated 2 days, single cells replated and counted
# Experimental: (§2) FIG. 6B illustrates the effect of ciclesonide on mammosphere growth wherein ciclesonide inhibits the growth of mammospheres, mammospheres having been treated with ciclesonide or DMSO for 2 days were separated into single cells and plated in 6 cm dishes at the same density. 24 hours after plating, the cells were counted, on days 2 and 3, the cells were counted three times, and plotted as mean values, and the data was expressed as the mean±SD for the three independent experimental results. *p<0.05 vs. DMSO-treated control.
# tumorspheres = experiment: Tumorsphere proliferation (cell counting); type: cell-based, human; conditions: tumorspheres treated 2 days, single cells replated and counted on days 1 to 3
# Experimental: as §2, with “FIG. 11B” for “FIG. 6B”, “on tumorsphere formation” for “on mammosphere growth”, “of tumorspheres, tumorspheres” for “of mammospheres, mammospheres”, “same density,” for “same density.”, “days 1, 2,” for “days 2”, “DMSO-treated control; and […]” for “DMSO-treated control.”
# Oct4 = experiment: Real-time PCR of self-renewing genes in mammospheres; type: cell-based, human; conditions: RT-PCR, β-actin internal control
# Experimental: (§3) The levels of transcripts were measured with a One Step SYBR PrimeScript RT-PCR kit (Takara, Tokyo, Japan) using SYBR green as a double-stranded DNA-specific dye in accordance with the manufacturer's protocol. One-step RT-PCR was performed on 1 μg of total RNA, 10 μl of 2× One Step SYBR RT-PCR Buffer IV, and 1 μl of PrimeScript 1 step Enzyme Mix II using PCR forward and reverse primers of each of CD44, NANOG, OCT4, C-myc, Sox2, Snail, and β-actin at a final volume of 20 μl per reaction.
# (§4) The relative expression level of mRNA of the target gene was calculated using a comparative CT method. At least three independent PCR procedures were performed in accordance with statistical analysis. PCR products were normalized with the […] gene as an internal control.
# CD44 = experiment: as above; type: cell-based, human; conditions: RT-PCR, β-actin internal control
# Experimental: as §3, §4
# Nanog = experiment: as above; type: cell-based, human; conditions: RT-PCR, β-actin internal control
# Experimental: as §3, §4
# C-myc = experiment: as above; type: cell-based, human; conditions: RT-PCR, β-actin internal control
# Experimental: as §3, §4
# IL-8 = experiment: Human inflammatory cytokine assay (CBA), mammosphere culture solution; type: cell-based; conditions: MDA-MB-231 mammosphere culture solution
# Experimental: (§5) Mixed capture beads were vortexed and 50 μl of beads were added to assay tubes. 50 μl of human inflammatory cytokine standard and the cultured tumorsphere solution were added to the assay tubes, and then mixed with a cytokine PE solution. After 3 hours, the mixed solution was washed and analyzed by flow cytometry (Accuri C6, BD, San Diego, Calif., USA).
# IL-6 = experiment: as above; type: cell-based; conditions: MDA-MB-231 mammosphere culture solution
# Experimental: as §5
# [3] = test system: A549 cell-derived tumorspheres; experiment: Tumorsphere formation; type: cell-based, human; conditions: A549 primary tumorspheres
# Experimental: Human lung cancer cells, A549, were cultured under the same culture conditions as those for the breast cancer cells of Example 2-1. To establish primary tumorspheres, single cell-suspended A549 cells were inoculated into ultra-low attachment 6-well plates containing 2 ml of Cancer Stem Premium medium (ProMab Biotechnologies Inc, Richmond, Calif., USA) at a density of 5×10^4 cells/well. The cells were incubated in a 5% CO2 incubator at 37° C. for 10 days.
# Lung cancer tumorspheres were counted in the same manner as in Example 3-1, and for the analysis of tumorsphere formation, tumorsphere formation efficiency (TFE, %) was determined by the following equation: TFE (%)=number of tumorspheres per well/total number of plated cells per well×100.
# MDA-MB-231 cells [4] = experiment: Breast cancer cell proliferation assay (MTS); type: cell-based, human; conditions: MDA-MB-231, 48 hours after treatment
# Experimental: (§6) The proliferation rates of MCF-7 cells and MDA-MB-231 cells were measured using a CellTiter 96® aqueous one solution cell proliferation kit. The MCF-7 cells or the MDA-MB-231 cells were cultured in a 96-well plate for 48 hours in the presence of ciclesonide at concentrations of 0 μM, 5 μM, 10 μM, 20 μM, 40 μM, and 80 μM. In accordance with the manufacturer's protocol, absorbance at 490 nm was determined using a 96-well plate reader (Dynex Revelation, Dynex Ltd., Billingshurst, UK). Respective data was determined by measuring three sets.
# MCF-7 cells [5] = experiment: Breast cancer cell proliferation assay (MTS); type: cell-based, human; conditions: MCF-7, 48 hours after treatment
# Experimental: as §6
structure (smiles),measurement,setting,value
CC(C)C(=O)OCC(=O)[C@@]12O[C@H](C3CCCCC3)O[C@@H]1C[C@H]1[C@@H]3CCC4=CC(=O)C=C[C@]4(C)[C@H]3[C@@H](O)C[C@@]12C [ciclesonide],phosphorylation of nuclear STAT3 protein compared to a control,STAT3,reduced
same,subpopulation expressing CD44high/CD24low,MCF-7 cells [1],reduced
same,number of apoptotic breast cancer cells (annexin V+),MDA-MB-231 cells [2],increased
same,number of apoptotic lung cancer cells (annexin V+),A549 cells,increased
same,proliferation of mammospheres,mammospheres,significantly reduced
same,growth of tumorspheres (number of survived cancer cells),tumorspheres,inhibited
same,expression of Oct4,Oct4,reduced
same,expression of CD44,CD44,reduced
same,expression of Nanog,Nanog,reduced
same,expression of C-myc,C-myc,reduced
same,production level of secreted IL-8,IL-8,reduced
same,production level of secreted IL-6,IL-6,reduced
same,size of the tumorspheres,[3],significantly reduced
same,reduction of the number of tumorspheres,[3]; 5 μM and 10 μM,90%
same,concentration at which growth of the cell line was inhibited in a concentration-dependent manner,MDA-MB-231 cells [4],≥ 10 µM
same,concentration at which growth of the cell line was inhibited in a concentration-dependent manner,MCF-7 cells [5],≥ 10 µM
